Source: patent US20230399612A1, “METHOD FOR THE GENERATION OF NEUROSPHERES” (KUGELMEIERS LTD., priority 2020, published 2023)
Read-outs that look alike come from different tables or passages of the source.

System: Hi-Q organoids
Test: Calcium imaging in sections of Hi-Q brain organoids (Oregon Green BAPTA 1)
Assay type: cell-based, human
Conditions: for calcium signals on addition of the substance: more evident in older than in younger organoids, FIG. 4C-D

Row | Molecule | response of organoids to added transmitter (calcium imaging) (Day 30 organoids, FIG. 4C) | response of organoids to added transmitter (calcium imaging) (Day 40 organoids, FIG. 4D) | calcium signals on addition of the substance | further results
1 | NCCCC(=O)O [GABA] | respond | respond | spike in calcium signals | –
2 | NS(=O)(=O)c1cccc2c1c([N+](=O)[O-])cc1nc(O)c(O)nc12 [NBQX] | – | – | – | effect on calcium signals evoked by GABA or glutamate (involvement of AMPA receptors) (blocker added): blocked
3 | NC1=N[C@H](O)[C@H]2[C@H]3O[C@]4(O)O[C@@H]([C@@H](O)[C@@]2(N1)[C@@H]4O)[C@]3(O)CO [TTX, tetrodotoxin] | – | – | – | effect on the response to GABA: not altered; inhibition of sodium channels in the brain organoids, analyzed by calcium imaging: inhibits sodium channels
4 | NiCl2 | – | – | – | effect on the response to GABA (blocker added, calcium signal evoked by GABA): blocked
5 | glutamate | no response | respond | spike in calcium signals | –
